Molecules are shown by their SMILES. “Also recorded” adds a separate entry of the source.

Results on 17 compounds are retold here after patent publication US10550108B2, “Poly(ADP-ribose) polymerase 1 inhibitors structurally unrelated to NAD” (Institute for Cancer Research, priority 2014, dated 2020).

The first data set has as its system breast cancer-derived cells BT474. In words: Cell survival assay (alamarBlue), cancer-derived cells. The data set is classed as cell-based, human. The settings on record: 72 hr. On the procedure:
(§1) Normal cells and cancer-derived cells were plated at a density of 10^4 cells/well (100 μl) in a 96-well plate. On the next day, Olaparib, a NAD-mimetic, or 5F02, 4D11, 5A03, 5H03, 1C09, new non-NAD-like inhibitors, were added. Cells were grown for 72 hr. 20 μl/well of alamarBlue® reagent was added; fluorescence readings were taken.
(§2) The cytotoxic effects of treatment by classical inhibitor Olaparib and the new inhibitors was compared using breast cancer-derived cells BT474 and normal breast-derived cells HMEK.
For the compound `O=C(c1cc(Cc2n[nH]c(=O)c3ccccc23)ccc1F)N1CCN(C(=O)C2CC2)CC1` [Olaparib], the “cytotoxic effect on cancer-derived cells” value was “eliminate cancer-derived cells at similar concentrations; also recorded: killed both normal and cancer cells”.

The target in a further data set is PARP-1 (Homo sapiens, UniProt P09874). The data set can be described thus: PARP-1 activation screening assay, 384-well ELISA plate coated with histone H4. As to conditions: pilot screen of ICCB Known Bioactives library; pADPr ELISA signal (absorbance at 650 or 450 nm as indicator of PARP-1 activity). On the technique in general: In an ELISA, binding on a coated surface is turned into a signal by an enzyme label.
Sequence of PARP-1 (P09874 whole entry): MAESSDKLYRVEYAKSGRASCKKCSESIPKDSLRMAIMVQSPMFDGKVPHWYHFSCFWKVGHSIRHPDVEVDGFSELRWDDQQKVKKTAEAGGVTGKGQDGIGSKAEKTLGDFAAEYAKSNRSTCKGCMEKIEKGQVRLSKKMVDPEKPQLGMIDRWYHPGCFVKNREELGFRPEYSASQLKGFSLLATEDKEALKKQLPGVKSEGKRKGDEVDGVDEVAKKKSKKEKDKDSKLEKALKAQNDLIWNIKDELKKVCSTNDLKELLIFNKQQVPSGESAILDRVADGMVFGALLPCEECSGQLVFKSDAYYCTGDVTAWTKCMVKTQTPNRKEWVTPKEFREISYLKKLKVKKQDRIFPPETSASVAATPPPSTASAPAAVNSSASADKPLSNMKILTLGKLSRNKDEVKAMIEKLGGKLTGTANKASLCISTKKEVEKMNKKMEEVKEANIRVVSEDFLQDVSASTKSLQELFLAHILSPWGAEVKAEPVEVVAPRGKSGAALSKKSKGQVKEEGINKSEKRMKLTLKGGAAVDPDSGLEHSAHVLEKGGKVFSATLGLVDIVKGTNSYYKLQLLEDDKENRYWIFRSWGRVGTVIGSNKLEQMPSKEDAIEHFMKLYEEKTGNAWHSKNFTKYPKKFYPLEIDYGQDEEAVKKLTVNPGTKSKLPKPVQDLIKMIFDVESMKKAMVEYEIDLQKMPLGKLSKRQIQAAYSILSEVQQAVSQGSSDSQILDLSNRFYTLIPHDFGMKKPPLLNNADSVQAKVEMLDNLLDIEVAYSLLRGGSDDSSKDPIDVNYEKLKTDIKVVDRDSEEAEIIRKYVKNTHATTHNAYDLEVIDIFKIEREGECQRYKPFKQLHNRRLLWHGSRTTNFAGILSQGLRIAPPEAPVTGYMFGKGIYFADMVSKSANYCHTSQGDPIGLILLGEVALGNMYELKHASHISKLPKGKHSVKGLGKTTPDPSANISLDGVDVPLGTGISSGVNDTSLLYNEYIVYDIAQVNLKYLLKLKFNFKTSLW
Description: The screening platform included a PARP1 activation assay in plates coated with histone H4. PARP1 reactions were set up in each well of the plate in the presence of a single small molecule test compound or a positive or negative control compound. The product of the reaction between PARP1 and H4, poly-ADP-ribose, was then quantified, with absorbance at 650 nm or 450 nm used as an indicator of PARP1 activity (FIG. 2A).
A PARP-1 activation screening assay was designed using a 384-well ELISA plate coated with histone H4 protein-activator. PARP-1 reactions were set up in each well in presence of single a small molecule compound or a positive and a negative control. […] The product of these reactions, poly-(ADP)-ribose, was quantified. Absorbance at 650 or 450 nm was used as an indicator of PARP-1 activity (FIG. 2A). As the test library for this screening assay, the ICCB Known Bioactives library of 480 compounds was used, which includes all popular PARP-1 inhibitors.
Compound `CN(C)C[C@H](O)Cn1c2ccc(Br)cc2c2cc(Br)ccc21` (racemic) [Wiskostatin] came in with a Value of 1.90.

The compound `O=c1[nH]c2ccccc2c2ccccc12` [6(5H)-Phenanthridinone] came in with a Value of 0.05.

Compound `Br.NC1CCc2cc(O)c(O)cc2C1` (stereo not drawn) [6,7-ADTN HBr] displayed a Value of 0.50.

On to `N#C/C(=C\c1ccc(O)c(O)c1)C(N)=S` [AG213 (Tyrphostin 47)], for which the Value worked out at 1.28.

In the case of `CCOC(=O)CN1C(=O)CC(C[C@@H](O)[C@@H]2C[C@@H](C)C[C@H](C)C2=O)CC1=O` [Cycloheximide-N-ethylethanoate], the Value was determined as 1.89.

In the case of `C=C1[C@@H](C)[C@H]2[C@H](Cc3ccccc3)NC(=O)[C@]23OC(=O)/C=C/[C@H](O)CCC[C@@H](C)C/C=C/[C@H]3[C@@H]1O` [Cytochalasin B], the Value was 2.03.

For `C=C1O[C@@](CO)(n2cnc3c(N)ncnc32)[C@H](O)[C@@H]1O` [Decoyinine], the Value was 2.00.

The compound `[Cl-].c1ccc2c(c1)[I+]c1ccccc1-2` [Diphenyleneiodonium Cl] gave a Value of 0.20.

Take `CNc1ccc2oc(C[C@H]3O[C@@]4(CC[C@H]3C)O[C@H]([C@H](C)C(=O)c3ccc[nH]3)[C@H](C)C[C@H]4C)nc2c1C(=O)O` [Formula A-23187, A-23187]: the Value came to 1.22.

Consider `NCCNS(=O)(=O)c1cccc2cnccc12` [Formula H9], for which the Value was 0.05.

For the compound `CC(C)Cn1c(=O)n(C)c(=O)c2[nH]cnc21` [IBMX], the Value was 0.94.

The compound `CN(C)C(=O)C(CCN1CCC(O)(c2ccc(Cl)cc2)CC1)(c1ccccc1)c1ccccc1` [Loperamide] displayed a Value of 2.34.

With `CC1(C)Oc2ccc(C#N)cc2[C@@H](OC2=CC(=O)CC2)[C@@H]1O` [PCO-400], the Value is 2.01.

For `COc1cccc(-c2cc(=O)c3ccccc3o2)c1N` [PD 98059], the Value was 0.69.

Compound `CC[N+](C)(CC)CCC[n+]1c(-c2ccccc2)c2cc(N)ccc2c2ccc(N)cc21.[I-].[I-]` [Propidium iodide] displayed a Value of 0.18.

`O=c1c(O)c(-c2ccc(O)c(O)c2)oc2cc(O)cc(O)c12` [Quercetin] registered a Value of 0.18.

Another data set concerns normal breast-derived cells HMEK. In words: Cell survival assay (alamarBlue), normal cells. The class given is cell-based, human. The settings on record: 72 hr. Here is the method: as §1, §2
(In general: The colour change of resazurin is a common sign of viable cells or microbes.)
`O=C(c1cc(Cc2n[nH]c(=O)c3ccccc23)ccc1F)N1CCN(C(=O)C2CC2)CC1` [Olaparib]: the “cytotoxicity to normal cells” value is “killed both normal and cancer cells”.
